From patent EP1566447A1, “Glimepiride- and insulin-induced glycosylphosphatidylinositol-specific phospholipase C regulation” (priority 2004, dated 2005) come the findings set out here.

The target in one assay is T1, lipoprotein lipase (LPL) (Bos taurus, UniProt P11151).
T1 construct: purchased Sigma/Aldrich (Deisenhofen, Germany); host or cells: bovine milk
T1 sequence (P11151 29-478): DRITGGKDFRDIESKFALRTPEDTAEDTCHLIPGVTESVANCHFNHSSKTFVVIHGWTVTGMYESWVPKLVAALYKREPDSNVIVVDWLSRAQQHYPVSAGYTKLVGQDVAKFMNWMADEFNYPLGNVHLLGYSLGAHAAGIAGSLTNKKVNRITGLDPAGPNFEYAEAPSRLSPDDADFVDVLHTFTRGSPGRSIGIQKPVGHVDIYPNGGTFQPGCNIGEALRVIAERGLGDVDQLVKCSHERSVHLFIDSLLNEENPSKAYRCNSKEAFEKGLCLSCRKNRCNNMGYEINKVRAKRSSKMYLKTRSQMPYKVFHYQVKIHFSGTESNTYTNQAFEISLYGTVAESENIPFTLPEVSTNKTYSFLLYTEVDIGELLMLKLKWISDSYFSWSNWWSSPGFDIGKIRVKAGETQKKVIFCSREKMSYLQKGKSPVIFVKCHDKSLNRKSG
In words: selectivity: lipoprotein lipase assay. The assay is classed as biochemical, bovine. The conditions noted are these: 50 µM. As for the experimental part:
(§1) Hormone-sensitive lipase (HSL) and lipoprotein lipase (LPL) were measured using a radiolabeled triolein droplet emulsion as described in "Vertesy et al., (2002) Journal Antibiotics 55:480-494". Pancreatic lipase (PL) was determined by incubation of 0.25 mmol tributyrin in 2 ml of 5 mM Tris/HCl (pH 6.5), 6 mM sodium taurodeoxycholate, 150 mM NaCl, 1 mM CaCl2 with porcine PL and colipase in the same buffer using a recording pH stat (stirring at 1000 rpm at 25°C) with the pH adjusted to 6.5. PC-PLC was assayed by incubation of 0.2 ml of 10 mM dipalmitoyllecithin, 0.1 ml of 10 mM SDC and 0.1 ml of 0.03 M CaCl2 with bacterial PC-PLC (in 50 mM Tris/HCl, pH 7.5, 0.1 % BSA) for 10 min at 37°C. The reaction was terminated by addition of 0.1 ml of 50 % TCA and subsequently of 2.5 ml of […]. After centrifugation (1500xg, 15 min), 0.2-ml portions of the upper methanol/water phase (~ 1.33 ml) was removed, supplemented with 0.5 ml of 60 % HClO4, then heated at 170°C for 1 h and finally analyzed for inorganic phosphate. Mammalian PI-PLC was measured by incubation of 0.1 ml of 10 mM PI, 0.1 ml of 0.8 % sodium deoxycholate, 0.1 % BSA, 0.2 ml of 100 mM sodium borate (pH 7.5) and rat liver PI-PLC for 20 min at 37°C. The reaction was terminated and further processed as described for the PC-PLC. […] Radioactive phosphatidic acid was detected by phosphorimaging. […]

The subject of a further assay is rat liver PI-PLC. Briefly: selectivity: mammalian PI-PLC assay. Type of assay: biochemical. The conditions noted are these: 50 µM. As for the experimental part:
as §1

The target in the next assay is T2, bovine AChE (Bos taurus, UniProt P23795).
T2 construct: solubilized and partially purified bovine erythrocyte AChE; from tissue; host or cells: bovine erythrocytes
In words: selectivity: AChE activity. As to conditions: 50 µM. The assay is classed as biochemical. Here is the method: Electroporation was performed as described in "Müller, G. et al., (2000) Mol. Cell. Biol. 20: 4708-4723". Lipolysis was determined as release of glycerol or fluorescent NBD-FA from prelabeled and isoproterenol-stimulated adipocytes as described in "Müller, G. et al., (2003) Biochimie 85: 1245-1256". Gce1 was detected by photolabeling of solubilized plasma membranes or hc/IcDIGs (10-50 µg protein) with 8-N3-[^32P]cAMP and subsequent phosphorimaging as described in "Müller, G. et al., (1994) Biochemistry 33: 12149-12159". 5'-Nuc, aP and AChE activities were measured according to "Eliakim, R. et al., (1990) Biochim. Biophys. Acta 1355: 293-302". Protein was determined using the BCA protein determination kit from Pierce (Rockford, IL) and BSA as calibration standard. SDS-PAGE was performed using precast gels (Novex, San Diego, CA; 10 % Bis-Tris resolving gel, morpholinopropanesulfonic acid-SDS running buffer). Lumiimages were evaluated on a Lumilmager using Lumilmager software (Roche Diagnostics). Phosphor- and fluorescence images were processed and quantified using the Storm 860 Phosphorlmager system (Molecular Dynamics, Gelsenkirchen, Germany). Figures were constructed using the Adobe Photoshop software (Adobe Systems, Mountain View, CA).
Fig. 3: Selectivity of GPI-2350. […]

The subject of the next assay is Isolated rat adipocytes. In words: glimepiride-induced redistribution of signaling proteins within DIGs. Type of assay: cell-based. As to conditions: max. effective conc. (50 µM).

Entries after “also recorded” stand apart in the source; their conditions may differ.

T2 sequence (P23795 other isoform, or with tags, fused parts or gaps): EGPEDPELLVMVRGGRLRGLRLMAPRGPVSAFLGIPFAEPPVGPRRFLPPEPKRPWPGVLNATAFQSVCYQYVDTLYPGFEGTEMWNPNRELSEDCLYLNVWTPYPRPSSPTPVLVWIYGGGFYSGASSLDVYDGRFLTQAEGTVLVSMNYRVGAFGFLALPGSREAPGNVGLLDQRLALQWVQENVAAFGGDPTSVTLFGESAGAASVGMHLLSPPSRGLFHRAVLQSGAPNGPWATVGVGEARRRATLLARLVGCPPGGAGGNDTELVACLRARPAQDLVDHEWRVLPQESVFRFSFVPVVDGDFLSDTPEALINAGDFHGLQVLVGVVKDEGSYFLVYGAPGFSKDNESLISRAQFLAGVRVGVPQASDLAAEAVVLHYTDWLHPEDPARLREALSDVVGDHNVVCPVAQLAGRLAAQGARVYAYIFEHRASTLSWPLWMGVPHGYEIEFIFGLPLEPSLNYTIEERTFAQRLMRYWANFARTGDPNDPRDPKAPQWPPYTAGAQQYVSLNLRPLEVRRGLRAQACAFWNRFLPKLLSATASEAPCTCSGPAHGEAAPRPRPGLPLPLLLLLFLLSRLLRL

Take `CCCCCCCCCCCCP1(=O)O[C@@H]2[C@H](O)[C@@H](O)[C@H](O)[C@@H](O)[C@@H]2O1` (mixture of isomers) [GPI-2350, myo-inositol-1,2-cyclo-dodecylphosphonic acid]: the “effect on lipase activity” value at lipoprotein lipase (LPL) is recorded as “not significantly affected”. For the same compound, in the assay on rat liver PI-PLC, the “effect on phospholipase activity” value is listed as “not significantly affected”. Besides, the “effect on AChE activity” value on bovine AChE is on record as “not significantly affected”. Moreover, the “effect on glimepiride-induced redistribution from hcDIGs to IcDIGs” value with Isolated rat adipocytes is recorded as “almost complete blockade; also recorded: almost completely abolished”.
